What was measured:
[1] = biological target: Sigma non-opioid intracellular receptor 1 (Homo sapiens, UniProt Q99720); assay: DRUGMATRIX: Sigma1 radioligand binding (ligand: [3H] Haloperidol); assay type: cell membranes, Jurkat, Membrane; conditions: Not Active = under 50% inhibition at 10 µM
[2] = biological target: Protein phosphatase 3 catalytic subunit alpha (Homo sapiens, UniProt Q08209); design: species or system Escherichia coli;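 further: inhibition of calcineurin (PP2B) enzyme activity, measured with DiFMUP as the substrate; in other assays of this panel Not Active means under 50% inhibition at 10 µM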
[3] = DRUGMATRIX: Atrial Natriuretic Factor (ANF) radioligand binding (ligand: [125I] ANF (rat)); assay type: cell membranes, Cavia porcellus, Dunkin-Hartley, Adrenal gland, Membrane; conditions: Not Active = under 50% inhibition at 10 µM
[4] = biological target: T1, Nitric oxide synthase, inducible (Mus musculus, UniProt P29477); design: species or system Escherichia coli;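 further: inhibition of iNOS enzyme activity measured with L-arginine as substrate; in other assays of this panel Not Active means under 50% inhibition at 10 µM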
T1 sequence (P29477 whole entry): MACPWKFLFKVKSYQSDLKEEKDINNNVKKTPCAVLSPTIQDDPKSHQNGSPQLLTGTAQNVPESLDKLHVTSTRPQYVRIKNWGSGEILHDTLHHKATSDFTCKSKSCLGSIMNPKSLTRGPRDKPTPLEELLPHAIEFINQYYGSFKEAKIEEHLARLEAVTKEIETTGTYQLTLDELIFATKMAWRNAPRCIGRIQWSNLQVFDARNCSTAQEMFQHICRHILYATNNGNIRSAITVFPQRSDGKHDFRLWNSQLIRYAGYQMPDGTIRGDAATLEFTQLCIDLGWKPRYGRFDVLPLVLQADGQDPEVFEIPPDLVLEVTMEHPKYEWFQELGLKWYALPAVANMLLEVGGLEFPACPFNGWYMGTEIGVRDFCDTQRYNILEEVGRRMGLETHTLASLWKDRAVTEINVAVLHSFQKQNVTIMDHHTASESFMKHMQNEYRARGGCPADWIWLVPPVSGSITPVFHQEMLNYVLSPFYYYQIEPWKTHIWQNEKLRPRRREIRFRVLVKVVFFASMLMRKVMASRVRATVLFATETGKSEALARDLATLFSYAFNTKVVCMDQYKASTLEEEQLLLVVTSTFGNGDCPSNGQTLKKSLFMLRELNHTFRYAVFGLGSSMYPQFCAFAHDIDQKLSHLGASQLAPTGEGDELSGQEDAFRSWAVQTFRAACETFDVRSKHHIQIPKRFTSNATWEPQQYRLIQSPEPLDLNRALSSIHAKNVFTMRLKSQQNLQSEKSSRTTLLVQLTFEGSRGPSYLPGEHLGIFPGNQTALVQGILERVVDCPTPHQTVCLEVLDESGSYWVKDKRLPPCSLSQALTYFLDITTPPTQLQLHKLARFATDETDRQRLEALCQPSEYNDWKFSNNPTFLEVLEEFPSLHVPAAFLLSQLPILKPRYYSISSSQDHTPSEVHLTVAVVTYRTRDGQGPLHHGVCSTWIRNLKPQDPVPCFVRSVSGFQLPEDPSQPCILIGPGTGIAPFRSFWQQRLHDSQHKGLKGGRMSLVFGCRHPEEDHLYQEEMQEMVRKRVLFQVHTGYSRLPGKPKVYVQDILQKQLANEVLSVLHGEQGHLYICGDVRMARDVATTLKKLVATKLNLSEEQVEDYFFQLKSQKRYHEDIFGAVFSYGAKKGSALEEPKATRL

Neutrophil elastase = biological target: T2, Neutrophil elastase (Homo sapiens, UniProt P08246); assay type: tissue-based;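 further: inhibition of neutrophil elastase enzyme activity, measured with a p-nitroanilide-linked peptide substrate; in other assays of this panel Not Active means under 50% inhibition at 10 µM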
T2 sequence (P08246 whole entry): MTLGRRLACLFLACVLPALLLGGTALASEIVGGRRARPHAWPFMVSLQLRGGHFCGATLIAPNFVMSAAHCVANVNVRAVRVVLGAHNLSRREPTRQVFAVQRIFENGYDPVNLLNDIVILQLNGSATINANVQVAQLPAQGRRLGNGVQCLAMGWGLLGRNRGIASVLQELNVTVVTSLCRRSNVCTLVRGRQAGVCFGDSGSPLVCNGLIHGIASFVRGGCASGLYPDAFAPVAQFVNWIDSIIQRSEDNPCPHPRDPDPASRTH

[5] = biological target: T3, 5-hydroxytryptamine receptor 2C (Homo sapiens, UniProt P28335); assay: DRUGMATRIX: Serotonin (5-Hydroxytryptamine) 5-HT2C radioligand binding (ligand: [3H] Mesulergine); assay type: cell membranes, CHO-K1, Membrane; conditions: Not Active = under 50% inhibition at 10 µM
T3 sequence (P28335 whole entry): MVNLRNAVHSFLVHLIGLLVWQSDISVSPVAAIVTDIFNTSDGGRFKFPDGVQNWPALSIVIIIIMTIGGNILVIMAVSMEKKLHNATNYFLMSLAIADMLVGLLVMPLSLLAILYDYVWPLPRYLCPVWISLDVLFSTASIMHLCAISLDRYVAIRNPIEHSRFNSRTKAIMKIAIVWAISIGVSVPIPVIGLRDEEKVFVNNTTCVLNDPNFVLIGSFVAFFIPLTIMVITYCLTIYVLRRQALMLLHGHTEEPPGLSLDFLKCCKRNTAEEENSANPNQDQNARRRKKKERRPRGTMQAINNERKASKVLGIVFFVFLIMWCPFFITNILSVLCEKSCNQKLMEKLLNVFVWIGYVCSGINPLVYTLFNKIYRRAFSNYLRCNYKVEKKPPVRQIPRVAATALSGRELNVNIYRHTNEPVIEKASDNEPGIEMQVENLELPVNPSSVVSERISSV

Adenosine receptor A3 = biological target: T4, Adenosine receptor A3 (Homo sapiens, UniProt P0DMS8); assay type: cell membranes, CHO-K1, Membrane; conditions: cho-k1;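 further: radioligand binding assay with AB-MECA serving as the labeled ligand; in other assays of this panel Not Active means under 50% inhibition at 10 µM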
T4 sequence (P0DMS8 whole entry): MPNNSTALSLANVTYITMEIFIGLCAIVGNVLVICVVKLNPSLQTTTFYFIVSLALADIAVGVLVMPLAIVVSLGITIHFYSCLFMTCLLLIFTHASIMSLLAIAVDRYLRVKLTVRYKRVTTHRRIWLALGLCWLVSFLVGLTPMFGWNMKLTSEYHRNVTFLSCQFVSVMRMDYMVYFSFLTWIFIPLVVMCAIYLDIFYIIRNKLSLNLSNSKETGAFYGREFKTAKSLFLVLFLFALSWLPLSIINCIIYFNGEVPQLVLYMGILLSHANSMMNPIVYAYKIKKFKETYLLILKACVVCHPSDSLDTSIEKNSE

Chain of Sigma non-opioid intracellular receptor 1 (Q99720 whole entry): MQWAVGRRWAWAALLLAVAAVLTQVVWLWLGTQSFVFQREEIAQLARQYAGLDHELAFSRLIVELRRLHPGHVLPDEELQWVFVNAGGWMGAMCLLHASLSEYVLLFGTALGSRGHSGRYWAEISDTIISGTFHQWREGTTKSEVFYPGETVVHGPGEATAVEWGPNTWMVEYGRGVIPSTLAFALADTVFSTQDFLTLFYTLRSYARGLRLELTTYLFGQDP

| Compound | IC50 ([1]; jurkat) | IC50 [2] | IC50 [3] | Ki [3] | IC50 [4] | IC50 (Neutrophil elastase) | IC50 ([5]; cho-k1) | IC50 (Adenosine receptor A3) | IC50 ([1]; read-out: IC50) | Ki ([1]; read-out: Ki) | IC50 ([5]; read-out: IC50) | Ki ([5]; read-out: Ki) | Ki ([1]; jurkat) | Ki [2] | Ki [4] | Ki (Neutrophil elastase) | Ki ([5]; cho-k1) | Ki (Adenosine receptor A3) |
| --- | --- | --- | --- | --- | --- | --- | --- | --- | --- | --- | --- | --- | --- | --- | --- | --- | --- | --- |
| CO[C@H]1/C=C/O[C@@]2(C)Oc3c(C)c(O)c4c(O)c(c(/C=N/N5CCN(C6CCCC6)CC5)c(O)c4c3C2=O)NC(=O)/C(C)=C\C=C\[C@H](C)[C@H](O)[C@@H](C)[C@@H](O)[C@@H](C)[C@H](OC(C)=O)[C@@H]1C [RIFAPENTINE] | Not Active | Not Active | Not Active | Not Active | Not Active | Not Active | Not Active | Not Active | – | – | – | – | – | – | – | – | – | – |
| CCCCOc1cc(CC2CNC(=O)N2)ccc1OC (stereo not given) [RO-201724] | Not Active | Not Active | Not Active | Not Active | Not Active | Not Active | Not Active | Not Active | – | – | – | – | – | – | – | – | – | – |
| CC[C@@H](C(=O)[C@@H](C)[C@@H](O)[C@H](C)[C@@H]1O[C@@H]([C@@H](CC)C(=O)O)CC[C@@H]1C)[C@H]1O[C@]2(C=C[C@@H](O)[C@]3(CC[C@@](C)([C@H]4CC[C@](O)(CC)[C@H](C)O4)O3)O2)[C@H](C)C[C@@H]1C [SALINOMYCIN] | Not Active | Not Active | Not Active | Not Active | Not Active | Not Active | Not Active | Not Active | – | – | – | – | – | – | – | – | – | – |
| O=C(Oc1ccccc1C(=O)O)c1ccccc1O [SALSALATE] | Not Active | Not Active | Not Active | Not Active | Not Active | Not Active | Not Active | Not Active | – | – | – | – | – | – | – | – | – | – |
| O=C(O)c1cn(-c2ccc(F)cc2)c2cc(N3CCNCC3)c(F)cc2c1=O [SARAFLOXACIN] | Not Active | Not Active | Not Active | Not Active | Not Active | Not Active | Not Active | Not Active | – | – | – | – | – | – | – | – | – | – |
| CC(C)NCC(O)c1ccc(NS(C)(=O)=O)cc1 (stereo not given) [SOTALOL] | Not Active | Not Active | Not Active | Not Active | Not Active | Not Active | Not Active | Not Active | – | – | – | – | – | – | – | – | – | – |
| O.O.O.O.O.O.[Cl-].[Cl-].[Sr+2] [STRONTIUM CHLORIDE HEXAHYDRATE] | Not Active | Not Active | Not Active | Not Active | Not Active | Not Active | Not Active | Not Active | – | – | – | – | – | – | – | – | – | – |
| O=C1C(CC[S+]([O-])c2ccccc2)C(=O)N(c2ccccc2)N1c1ccccc1 (stereo not given) [SULFINPYRAZONE] | Not Active | Not Active | Not Active | Not Active | Not Active | Not Active | Not Active | Not Active | – | – | – | – | – | – | – | – | – | – |
| NC(=O)N1C(=O)/C(=C(\O)c2cccs2)c2cc(Cl)ccc21 [TENIDAP] | Not Active | Not Active | Not Active | Not Active | Not Active | Not Active | Not Active | Not Active | – | – | – | – | – | – | – | – | – | – |
| COc1cc2nc(N3CCN(C(=O)C4CCCO4)CC3)nc(N)c2cc1OC (stereo not given) [TERAZOSIN] | Not Active | Not Active | Not Active | Not Active | Not Active | Not Active | Not Active | Not Active | – | – | – | – | – | – | – | – | – | – |
| CN(C/C=C/C#CC(C)(C)C)Cc1cccc2ccccc12 [TERBINAFINE] | – | Not Active | Not Active | Not Active | Not Active | Not Active | Not Active | Not Active | 0.56 µM | 0.235 µM | – | – | – | – | – | – | – | – |
| CCCCNc1ccc(C(=O)OCCN(C)C)cc1 [TETRACAINE] | – | Not Active | Not Active | Not Active | Not Active | Not Active | – | Not Active | 1.67 µM | 0.703 µM | 3.27 µM | 1.71 µM | – | – | – | – | – | – |
| Cn1c(=O)c2nc[nH]c2n(C)c1=O.O [THEOPHYLLINE] | Not Active | Not Active | Not Active | Not Active | Not Active | Not Active | Not Active | Not Active | – | – | – | – | – | – | – | – | – | – |
| CS(=O)(=O)c1ccc([C@@H](O)[C@@H](CO)NC(=O)C(Cl)Cl)cc1 [THIAMPHENICOL] | Not Active | Not Active | Not Active | Not Active | Not Active | Not Active | Not Active | Not Active | – | – | – | – | – | – | – | – | – | – |
| CCN(CC)CCNC(=O)c1cc(S(C)(=O)=O)ccc1OC [TIAPRIDE] | Not Active | Not Active | Not Active | Not Active | Not Active | Not Active | Not Active | Not Active | – | – | – | – | – | – | – | – | – | – |
| Clc1ccccc1CN1CCc2sccc2C1 [TICLOPIDINE] | – | Not Active | Not Active | Not Active | Not Active | Not Active | Not Active | Not Active | 0.426 µM | 0.179 µM | – | – | – | – | – | – | – | – |
| NC1CCN(c2nc3c(cc2F)c(=O)c(C(=O)O)cn3-c2ccc(F)cc2F)C1 (stereo not given) [TOSUFLOXACIN] | Not Active | Not Active | Not Active | Not Active | Not Active | Not Active | Not Active | Not Active | – | – | – | – | – | – | – | – | – | – |
| O=C(Nc1ccc(Br)cc1)c1cc(Br)cc(Br)c1O [TRIBROMSALAN] | Not Active | Not Active | Not Active | Not Active | Not Active | Not Active | Not Active | Not Active | – | – | – | – | – | – | – | – | – | – |
| CC(c1cc2ccccc2s1)N(O)C(N)=O (stereo not given) [ZILEUTON] | Not Active | Not Active | Not Active | Not Active | Not Active | Not Active | Not Active | Not Active | – | – | – | – | – | – | – | – | – | – |
| MANGANESE CHLORIDE ANHYDROUS | Not Active | Not Active | Not Active | Not Active | Not Active | Not Active | Not Active | Not Active | – | – | – | – | Not Active | Not Active | Not Active | Not Active | Not Active | Not Active |
